Measurements reported in patent publication US7915293B2, “Ubiquitin ligase inhibitors” (Rigel Pharmaceuticals, Inc., priority 2003, dated 2011).

Key:
Set-up in all cases: key: “+” indicates that the compound exibits inhibitory activity; “−” indicates that low or no inhibitory activity was observed
HeLa cells = experiment: Cell proliferation assay, photographic image analysis of proliferation, apoptosis and death (PAD assay), HeLa; assay type: cell-based; conditions: 6 concentrations tested
Procedure: (§1) A549 (ATCC# CCL-185), HeLa (ATCC# CCL-2), HCT116 (ATCC# CCL-247), and H1299 (ATCC# CRL-5803) cells were maintained in T175 flasks following the ATCC recommended media and handling procedures. Flasks reaching approximately 70% confluency were trypsinized and resuspended in RPMI media (Cell-Gro catalog number 10-040-CM) modified to contain 5% FBS, 100 ug/mlPen/Strep (Cell-Gro catalog number 30-002-CL), and 0.3 mg/ml L-Glutamine (Cell-Gro catalog number 25-003-CL). A 20,000 cells/ml solution was made for plating. Cells were plated in black Packard 96 well plates by placing 100 μl per well (2,000 cells per well).
(§2) Compounds and additional media were added 24 hours after cell plating. A compound master plate was created with concentrations 500 times greater than the final concentration added to the cells. All compound testing was done in duplicate using 6.3 fold dilutions starting with 10 mM. All outside wells (and 4 internal wells) were DMSO controls. Taxol and at least one additional control were run on all plates. Three microliters of the compound master plate were added to deep well blocks containing 750 μl of RPMI media. One hundred microliters were transferred from the compound/media deep well blocks to the plated cells resulting in a 500 fold dilution of the compounds. Cells were grown at 37° C., 5% CO2 for 48 hours.
(§3) Cells to be analyzed by photography were fixed and stained. One hundred microliters of media were removed and 100 μl of 9.3% […] was added to each well. Plates were left on the benchtop for 45 minutes. A staining solution containing 1.55 μl of 1 mg/ml DAPI added to 18.75 ml PBS was warmed for 15 minutes at 37° C. The cells were aspirated prior to washing with 100 μl of PBS. Seventy microliters of PBS were aspirated and 170 μl of the DAPI solution were added to each well of fixed cells. Plates were left at room temperature for one hour then aspirated and washed twice with 100 μl of PBS. The stained cells were left at 4° C. for a minimum of 16 hours before photographic analysis with Array Scan II (Cellomics). Analysis of the photographic images to determine numbers of live cells (proliferation), apoptotic cells and dead cells, were according to the methods described in U.S. Provisional Patent Application Ser. No. 60/406,714, which incorporated herein in its entirety.

[1] = molecular target: E3 (His-APC11/APC2-"APC") (Homo sapiens, UniProt Q9NYG5+Q9UJX6); experiment: Plate-based E3 ligase assay (APC FLAG), auto-ubiquitination; assay type: biochemical; conditions: 8 concentrations tested
Chain of E3 (His-APC11/APC2-"APC") (Q9NYG5 whole entry): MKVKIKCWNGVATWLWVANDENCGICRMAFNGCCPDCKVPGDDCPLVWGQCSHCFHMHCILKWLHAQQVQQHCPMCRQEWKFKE
Chain of E3 (His-APC11/APC2-"APC") (Q9UJX6 whole entry): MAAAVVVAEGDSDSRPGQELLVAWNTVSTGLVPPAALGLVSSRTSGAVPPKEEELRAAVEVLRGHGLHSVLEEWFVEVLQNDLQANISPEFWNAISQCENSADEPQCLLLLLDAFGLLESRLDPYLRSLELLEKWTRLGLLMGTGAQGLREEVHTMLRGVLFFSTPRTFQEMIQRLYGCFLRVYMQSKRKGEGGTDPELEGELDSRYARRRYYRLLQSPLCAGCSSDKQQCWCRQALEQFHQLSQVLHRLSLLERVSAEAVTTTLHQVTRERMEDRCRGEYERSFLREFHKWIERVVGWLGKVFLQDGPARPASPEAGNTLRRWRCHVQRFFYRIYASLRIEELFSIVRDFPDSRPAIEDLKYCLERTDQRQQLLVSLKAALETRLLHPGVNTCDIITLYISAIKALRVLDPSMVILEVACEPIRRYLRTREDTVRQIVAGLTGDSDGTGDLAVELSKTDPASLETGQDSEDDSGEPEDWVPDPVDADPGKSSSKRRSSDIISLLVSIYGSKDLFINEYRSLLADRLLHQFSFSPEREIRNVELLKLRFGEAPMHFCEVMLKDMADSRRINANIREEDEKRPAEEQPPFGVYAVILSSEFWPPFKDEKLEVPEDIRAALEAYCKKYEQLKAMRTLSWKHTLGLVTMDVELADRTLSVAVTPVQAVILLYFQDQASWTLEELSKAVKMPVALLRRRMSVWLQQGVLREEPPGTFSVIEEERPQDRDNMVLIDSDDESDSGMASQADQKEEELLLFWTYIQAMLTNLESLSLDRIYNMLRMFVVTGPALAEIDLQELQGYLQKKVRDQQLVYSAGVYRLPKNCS
Method in brief: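 His-APC11/APC2 auto-ubiquitination was run in casein-blocked nickel plates for 1 h at room temperature, with E1 at 5 ng/well, UbcH5c at 20 ng/well and APC at 100 ng/well. Buffer was 62.5 mM Tris pH 7.6, 3 mM MgCl2, 1 mM DTT, 2.5 mM ATP and Flag-ubiquitin at 100 ng/well. Detection used anti-Flag/HRP chemiluminescence, and IC50 was typically from 6 or 8 concentrations versus a DMSO control.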

A549 cells = experiment: Cell proliferation assay, photographic image analysis of proliferation, apoptosis and death (PAD assay), A549; assay type: cell-based; conditions: 6 concentrations tested
Procedure: as §1, §2, §3

| APC Flag 8 pt [1] | Structure (SMILES) | PAD Assay, HELA 6 pt (HeLa cells) | PAD Assay, A549 6 pt (A549 cells) |
| --- | --- | --- | --- |
| + | CC(C)(C)c1cc2cc(NS(=O)(=O)c3cc(Cl)c(Oc4ccc([N+](=O)[O-])cc4Cl)c(Cl)c3)ccc2[nH]1 [Example 245, N-(2-tert-butyl-1H-indol-5-yl)-3,5-dichloro-4-(2-chloro-4-nitrophenoxy)benzene-sulfonamide] | + | + |
| + | O=S(=O)(Nc1cccc2cnccc12)c1cc(Cl)c(Oc2ccc(Cl)cc2Cl)c(Cl)c1 [Example 246, 3,5-dichloro-4-(2,4-dichlorophenoxy)-N-isoquinolin-5-ylbenzenesulfonamide] | + | + |
| + | Cc1ccc(NS(=O)(=O)c2cc(Cl)c(Oc3ccc([N+](=O)[O-])cc3Cl)c(Cl)c2)cc1I [Example 250, 3,5-dichloro-4-(2-chloro-4-nitrophenoxy)-N-(3-iodo-4-methylphenyl)benzenesulfonamide] | + | + |
| + | Cc1ccc(Cl)cc1NS(=O)(=O)c1cc(Cl)c(Oc2ccc([N+](=O)[O-])cc2Cl)c(Cl)c1 [Example 252, 3,5-dichloro-N-(5-chloro-2-methylphenyl)-4-(2-chloro-4-nitrophenoxy)benzene-sulfonamide] | + | + |
| + | O=S(=O)(Nc1ccc(F)c(Cl)c1)c1ccc(Oc2ncc(C(F)(F)F)cc2Cl)cc1 [Example 256, N-(3-chloro-4-fluorophenyl)-4-{[3-chloro-5-(trifluoromethyl)pyridin-2-yl]oxy}benzene-sulfonamide] | + | + |
| + | O=[N+]([O-])c1ccc(F)c(NS(=O)(=O)c2ccc(Oc3ncc(C(F)(F)F)cc3Cl)cc2)c1 [Example 258, 4-{[3-chloro-5-(trifluoromethyl)pyridin-2-yl]oxy}-N-(2-fluoro-5-nitrophenyl)benzene-sulfonamide] | + | + |
| + | O=[N+]([O-])c1ccc(Oc2ccc(S(=O)(=O)Nc3cc(Cl)ccc3Cl)cc2Cl)c(C(F)(F)F)c1 [Example 261, 3-chloro-N-(2,5-dichlorophenyl)-4-(4-nitro-2-(trifluoromethyl)phenoxy]benzene-sulfonamide] | + | + |
| + | O=[N+]([O-])c1ccc(Oc2ccc(S(=O)(=O)Nc3ccc(F)cc3C(F)(F)F)cc2Cl)c(C(F)(F)F)c1 [Example 266, 3-chloro-N-[4-fluoro-2-(trifluoromethyl)phenyl]-4-[4-nitro-2-(trifluoromethyl)phenoxy]benzenesulfonamide] | + | + |
| + | O=[N+]([O-])c1ccc(Oc2ccc(S(=O)(=O)Nc3c(F)cccc3F)cc2Cl)c(C(F)(F)F)c1 [Example 268, 3-chloro-N-(2,6-difluorophenyl)-4-[4-nitro-2-(trifluoromethyl)phenoxy]benzene-sulfonamide] | + | + |
| + | O=S(=O)(Nc1cc(F)ccc1F)c1ccc(Oc2ncc(C(F)(F)F)cc2Cl)cc1 [Example 269, 4-{[3-chloro-5-(trifluoromethyl)pyridin-2-yl]oxy}-N-(2,5-difluorophenyl)benzene-sulfonamide] | − | − |
| + | O=[N+]([O-])c1ccc(Oc2ccc(S(=O)(=O)Nc3cccc(Br)c3)cc2Cl)c(C(F)(F)F)c1 [Example 270, N-(3-bRomophenyl)-3-chloro-4-[4-nitro-2-(trifluoromethyl)phenoxy]benzenesulfonamide] | + | + |
| + | Cc1c(Cl)cccc1S(=O)(=O)Nc1ccc(Oc2ccc([N+](=O)[O-])cc2)cc1 [Example 274, 3-chloro-2-methyl-N-[4-(4-nitrophenoxy)phenyl]benzenesulfonamide] | − | + |
| + | O=[N+]([O-])c1ccc(Oc2ccc(NS(=O)(=O)c3cccc(Cl)c3)cc2)cc1 [Example 275, 3-chloro-N-[4-(4-nitrophenoxy)phenyl] benzenesulfonamide] | − | + |
| + | O=S(=O)(Nc1ccc(Oc2ccc(Cl)cc2)cc1)c1cc(Cl)ccc1Cl [Example 276, 2,5-dichloro-N-[4-(4-chlorophenoxy)phenyl]benzenesulfonamide] | − | + |
| + | O=S(=O)(Nc1ccc(Oc2cc(C(F)(F)F)ccc2Cl)cc1F)c1cc(Cl)ccc1Cl [Example 277, 2,5-dichloro-N-{4-[2-chloro-5-(trifluoro-methyl)phenoxy]-2-fluorophenyl}benzene-sulfonamide] | + | + |
| + | O=S(=O)(Nc1ccc(Oc2ccc(F)cc2)c(Br)c1)c1cc(Cl)ccc1Cl [Example 278, N-[3-bRomo-4-(4-fluorophenoxy)phenyl]-2,5-dichlorobenzenesulfonamide] | + | + |
| + | O=S(=O)(Nc1ccc(Oc2c(Cl)cc(Cl)cc2Cl)cc1)c1cc(Cl)ccc1Cl [Example 279, 2,5-dichloro-N-[4-(2,4,6-trichlorophenoxy)phenyl]benzenesulfonamide] | + | + |
| + | Cc1c(Cl)cccc1S(=O)(=O)Nc1ccc(Oc2ccc(F)cc2)c(Br)c1 [Example 281, N-[3-bRomo-4-(4-fluorophenoxy)phenyl]-3-chloro-2-methylbenzenesulfonamide] | + | + |
| + | O=S(=O)(Nc1ccc(Oc2ccc(F)cc2)c(Br)c1)c1ccc(F)cc1 [Example 283, N-[3-bRomo-4-(4-fluorophenoxy)phenyl]-4-fluorobenzenesulfonamide] | − | + |
| + | O=S(=O)(Nc1ccc(Oc2ccc(F)cc2)c(Br)c1)c1ccc(OC(F)(F)F)cc1 [Example 284, N-[3-bRomo-4-(4-fluorophenoxy)phenyl]-4-(trifluoromethoxy)benzenesulfonamide] | + | + |
| + | O=S(=O)(Nc1ccc(Oc2cc(C(F)(F)F)ccc2Cl)cc1F)c1ccc(F)cc1 [Example 286, N-{4-[2-chloro-5-(trifluoromethyl)phenoxy]-2-fluorophenyl)-4-fluorobenzenesulfonamide] | + | + |
| + | O=[N+]([O-])c1ccc(Oc2c(Cl)cc(S(=O)(=O)Nc3ccc(Oc4cc(C(F)(F)F)ccc4Cl)cc3F)cc2Cl)c(Cl)c1 [Example 290, 3,5-dichloro-4-(2-chloro-4-nitrophenoxy)-N-{4-[2-chloro-5-(trifluoromethyl)phenoxy]-2-fluorophenyl}benzenesulfonamide] | + | + |
| + | O=[N+]([O-])c1ccc(Oc2c(Cl)cc(S(=O)(=O)Nc3ccc(Oc4ccc(F)cc4)c(Br)c3)cc2Cl)c(Cl)c1 [Example 291, N-[3-bRomo-4-(4-fluorophenoxy)phenyl]-3,5-dichloro-4-(2-chloro-4-nitrophenoxy) benzenesulfonamide] | + | + |
| − | O=S(=O)(Nc1ccc(Oc2ncc(C(F)(F)F)cc2Cl)cc1)c1ccccc1C(F)(F)F [Example 296, N-(4-(3-chloro-5-(trifluoromethyl)pyridin-2-yloxy)phenyl)-2-(trifluoromethyl)benzenesulfonamide] | − | + |
